# Test results from EP1614683B1, “Indazole compounds and pharmaceutical compositions for inhibiting protein kinases, and methods for their use” (priority 1999, dated 2001).
# Where two headings read alike, the source gives them in different places.
# Legend:
# LCK tyrosine kinase = LCK tyrosine kinase (Homo sapiens, UniProt P06239, C224D/P223M); assay: LCK spectrophotometric assay; format: biochemical; details: Table 1; compound concentration 1 µM; read-out: Lck-P* (% inhibition)
# Procedure: The spectrophotometric assay was carried out as described above for VEGF-R2, except for the following changes in concentration: LCK = 60 nM, MgCl2 = 0 mM, poly(E4Y1) = 20 mM.
# [1] = system: human umbilical vein endothelial cells (HUVEC); assay: HUVEC proliferation assay (VEGF-stimulated, MTT); format: cell-based; details: Homo sapiens, HUVEC, Table 1
# in vitro = in vitro ADME, human; details: human liver microsomes, 5 µM test compound, 37 °C, 2 h
# Procedure: Compound metabolism in human liver microsomes was measured by LC-MS analytical assay procedures as follows. First, human liver microsomes (HLM) were thawed and diluted to 5 mg/mL with cold 100 mM potassium phosphate (KPO4) buffer. Appropriate amounts of KPO4 buffer, NADPH-regenerating solution (containing B-NADP, glucose-6-phosphate, glucose-6-phosphate dehydrogenase, and MgCl2), and HLM were preincubated in 13 x 100 mm glass tubes at 37 C for 10 min. (3 tubes per test compound--triplicate). Test compound (5 µM final) was added to each tube to initiate reaction and was mixed by gentle vortexing, followed by incubation at 37 °C. At t=0, 2 h, a 250-µL sample was removed from each incubation tube to separate 12 x 75 mm glass tubes containing 1 mL ice-cold acetonitrile with 0.05 µM reserpine. […] Supernatant was transferred to new 12 x 75 mm glass tubes and evaporated by Speed-Vac centrifugal vacuum evaporator. Samples were reconstituted in 200 µL 0.1 % formic acid/acetonitrile (90/10) and vortexed vigorously to dissolve. The samples were then transferred to separate polypropylene microcentrifuge tubes and centrifuged at 14000 x g for 10 min. (Fisher Micro 14, S/N M0017580). For each replicate (#1-3) at each timepoint (0 and 2 h), an aliquot sample of each test compound was combined into a single HPLC vial insert (6 total samples) for LC-MS analysis, which is described below.
# [2] = molecular target: unphosphorylated VEGF-R2Δ50 (Homo sapiens, UniProt P35968, DEL940-989/E990V); assay: biochemical; details: read-out: FLVK ** (% inhibition)
# human FGF-R1 = human FGF-R1 (Homo sapiens, UniProt P11362, C488A/C584S/L457V); assay: FGF-R spectrophotometric assay; format: biochemical; details: Table 1; compound concentration 1 µM; read-out: FGF-P* (% inhibition)
# Procedure: The spectrophotometric assay was carried out as described above for VEGF-R2, except for the following changes in concentration: FGF-R = 50 nM, ATP = 2 mM, and poly(E4Y1) =15 mM.
# [3] = + albumin, read-out: HUVEC + albumin IC50
# Chain of LCK tyrosine kinase (P06239 223-509 P223M/C224D): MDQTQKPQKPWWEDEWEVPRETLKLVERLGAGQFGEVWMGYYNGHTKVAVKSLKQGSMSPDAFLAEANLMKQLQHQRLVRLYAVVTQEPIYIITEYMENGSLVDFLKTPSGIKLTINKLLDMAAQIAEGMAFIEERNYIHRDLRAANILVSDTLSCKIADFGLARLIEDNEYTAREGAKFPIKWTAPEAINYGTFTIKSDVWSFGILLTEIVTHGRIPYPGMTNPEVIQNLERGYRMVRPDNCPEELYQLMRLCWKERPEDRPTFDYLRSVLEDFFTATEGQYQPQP
# Chain of unphosphorylated VEGF-R2Δ50 (P35968 with tags, fused parts or gaps DEL940-989/E990V limits assumed): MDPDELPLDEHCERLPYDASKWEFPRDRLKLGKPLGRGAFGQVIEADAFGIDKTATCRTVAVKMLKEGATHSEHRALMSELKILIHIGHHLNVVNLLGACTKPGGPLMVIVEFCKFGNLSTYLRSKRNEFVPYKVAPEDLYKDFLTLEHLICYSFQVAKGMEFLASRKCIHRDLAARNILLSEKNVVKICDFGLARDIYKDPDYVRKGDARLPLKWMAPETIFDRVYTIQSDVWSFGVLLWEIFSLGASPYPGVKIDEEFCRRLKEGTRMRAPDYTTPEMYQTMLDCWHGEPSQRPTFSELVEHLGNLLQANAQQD
# Chain of human FGF-R1 (P11362 456-766 L457V/C488A/C584S): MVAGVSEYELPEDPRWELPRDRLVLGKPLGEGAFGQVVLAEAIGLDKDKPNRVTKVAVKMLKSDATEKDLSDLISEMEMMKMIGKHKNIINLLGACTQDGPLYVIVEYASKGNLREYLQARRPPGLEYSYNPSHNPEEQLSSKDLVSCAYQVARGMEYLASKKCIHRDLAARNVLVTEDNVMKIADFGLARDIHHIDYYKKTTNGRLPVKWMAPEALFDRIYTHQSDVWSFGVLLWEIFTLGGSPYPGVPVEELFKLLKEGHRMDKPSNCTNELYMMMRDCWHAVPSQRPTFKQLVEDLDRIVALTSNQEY
Structure (SMILES),inhibition at 1 µM (LCK tyrosine kinase) [%],"IC50 [1, 3] [nM]",IC50 ([1]; read-out: HUVEC IC50) [nM],"remaining at 2 h, 5 µM (in vitro; read-out: % remain (HLM, 2 h)) [%]",inhibition at 0.05 µM [2] [%],"% remain (HLM, 2 h) (in vitro) [%]",inhibition at 1 µM (human FGF-R1) [%]
"C[C@@H]1C[C@H]1C(=O)Nc1cccc(C(=O)c2ccc3c(/C=C/c4ccccn4)n[nH]c3c2)c1 (racemic) [Reference Example 41(h), 6-[3-((2-RS-trans-methylcyclopropyl)carboxamido)benzoyl]-3-E-[2-(pyridin-2-yl)ethenyl]-1H-indazole]",30,25,2,8,90,–,–
COc1cccc(CNC(=O)c2ccccc2Sc2ccc3c(/C=C/c4ccccn4)n[nH]c3c2)c1 [Reference Example 35(aa)],–,5,–,–,99,15,–
"O=C(NCc1ccco1)c1ccccc1Sc1ccc2c(/C=C/c3ccccn3)n[nH]c2c1 [Reference Example 35(bb), 6-[2-((fur-2-yl)methylcarbamoyl)phenylsulfanyl]-3-E-[2-(pyridin-2-yl)ethenyl]-1H-indazole]",–,4.1,–,–,87,8,–
"C=C(C)CNC(=O)c1ccccc1Sc1ccc2c(/C=C/c3ccccn3)n[nH]c2c1 [Reference Example 35(ee), 6-[2-(2-Methyl-2-propenylcarbamoyl)phenylsulfanyl]-3-E-[2-(pyridin-2-yl)ethenyl]-1H-indazole]",–,3,–,–,82,13,–
O=C(NCc1ccccc1F)c1ccccc1Sc1ccc2c(/C=C/c3ccccn3)n[nH]c2c1 [Reference Example 35(f)],–,–,–,–,100,15,–
COc1ccc(CNC(=O)c2ccccc2Sc2ccc3c(/C=C/c4ccccn4)n[nH]c3c2)cc1 [Reference Example 35(g)],–,~15,–,–,100,53,–
"Cc1ccc(CNC(=O)c2ccccc2Sc2ccc3c(/C=C/c4ccccn4)n[nH]c3c2)o1 [Reference Example 35(h), 6-[2-((5-Methylfur-2-yl)methylcarbamoyl)phenylsulfanyl)-3-E-[2-(pyridin-2-yl)ethenyl]-1H-indazole]",–,3.6,–,–,100,9,–
"C=CCNC(=O)c1ccccc1Sc1ccc2c(/C=C/c3ccccn3)n[nH]c2c1 [Reference Example 35(u), 6-[2-(Allylcarbamoyl)phenylsulfanyl]-3-E-[2-(pyridin-2-yl)ethenyl]-1H-indazole]",–,2.8,–,–,79,27,–
"CCNC(=O)c1ccccc1Sc1ccc2c(/C=C/c3ccccn3)n[nH]c2c1 [Reference Example 35(x), 6-[2-(Ethylcarbamoyl)phenylsulfanyl]-3-E-[2-(pyridin-2-yl)ethenyl]-1H-indazole]",–,2,–,–,75,37,–
"CCOCCNC(=O)c1ccccc1Sc1ccc2c(/C=C/c3ccccn3)n[nH]c2c1 [Reference Example 35(z), 6-[2-(2-(Ethoxy)ethylcarbamoyl)phenylsulfanyl]-3-E-[2-(pyridin-2-yl)ethenyl]-1H-indazole]",–,7.1,–,–,95,2,–
"C=CCn1nc(C)cc1C(=O)Nc1cc(C(=O)c2ccc3c(/C=C/c4ccccn4)n[nH]c3c2)ccc1C [Reference Example 41(ff), 6-[3-((1-Allyl-3-methyl-1H-pyrazol-5-yl)carboxamido)-4-methylbenzoyl]-3-E-[2-(pyridin-2-yl)ethenyl]-1H-indazole]",15,5.6,–,–,98,68,–
"O=C(c1cccc(NC(=O)c2cc(Cl)ccn2)c1)c1ccc2c(/C=C/c3ccccn3)n[nH]c2c1 [Reference Example 41(z), 6-[3-((4-chloropyridin-2-yl)carboxamido)benzoyl]-3-E-[2-(pyridin-2-yl)ethenyl]-1H-indazole]",54,7.5,–,–,100,–,74
